What all share (test): Peptidase activity detection on Columbia agar containing substrate
What all share (assay type): cell-based

Assay [1] concerns Pseudomonas aeruginosa NCTC 10662. The arrangement: key to fluorescence intensity: − = no fluorescence detected; e = trace of fluorescence; +/− = weak fluorescence; + = medium fluorescence; ++ = strong fluorescence; NG = No Growth. The conditions noted are these: for fluorescence intensity: Pseudomonas aeruginosa NCTC 10662, substrate 100 mg/l, 24 hours at 37° C., UV 360-365 nm; for fluorescence produced: Pseudomonas aeruginosa strain. The protocol:
(§1) 40 mg of each substrate are dissolved in 4 ml of dimethylformamide (DMF). This solution is completely taken up in 400 ml of Columbia agar autoclaved beforehand and kept molten at 50° C. The final concentration for each substrate is therefore 100 mg/l. Each of the media is distributed into 90 mm Petri dishes in a proportion of 20 ml per dish.
(§2) 18 microorganism strains derived from collections and belonging to various species of bacteria and of yeasts are inoculated onto these media by semi-quantitative isolation of 10 μl of a suspension at 0.5 McFarland diluted to 1/20. The media are incubated for 24 hours at 37° C., and then the colonies formed are examined visually under UV illumination at 360-365 nm.

The subject of assay [2] is Burkholderia cepacia 1222. The arrangement: key to fluorescence intensity: − = no fluorescence detected; e = trace of fluorescence; +/− = weak fluorescence; + = medium fluorescence; ++ = strong fluorescence; NG = No Growth. The settings on record: for fluorescence produced: B. cepacia strain; for fluorescence intensity: Burkholderia cepacia 1222, substrate 100 mg/l, 24 hours at 37° C., UV 360-365 nm. The protocol: as §1, §2

The subject of assay [3] is Listeria monocytogenes NCTC 11994. More on the design: key: − = no fluorescence detected; e = trace of fluorescence; +/− = weak fluorescence; + = medium fluorescence; ++ = strong fluorescence; NG = No Growth. The settings on record: substrate 100 mg/l, 24 hours at 37° C., UV 360-365 nm. How it is done:
as §1, §2

In assay [4] the test system is Salmonella Typhimurium NCTC 74. The arrangement: key: − = no fluorescence detected; e = trace of fluorescence; +/− = weak fluorescence; + = medium fluorescence; ++ = strong fluorescence; NG = No Growth. The settings on record: substrate 100 mg/l, 24 hours at 37° C., UV 360-365 nm. How it is done:
as §1, §2

The subject of assay [5] is Staphylococcus aureus NCTC 6571. The arrangement: key: − = no fluorescence detected; e = trace of fluorescence; +/− = weak fluorescence; + = medium fluorescence; ++ = strong fluorescence; NG = No Growth. The settings on record: substrate 100 mg/l, 24 hours at 37° C., UV 360-365 nm. How it is done: as §1, §2
For assay [6], the system named is Serratia marcescens NCTC 10211. The arrangement: key: − = no fluorescence detected; e = trace of fluorescence; +/− = weak fluorescence; + = medium fluorescence; ++ = strong fluorescence; NG = No Growth. The settings on record: substrate 100 mg/l, 24 hours at 37° C., UV 360-365 nm. How it is done:
as §1, §2

For assay [7], the system named is Enterococcus faecium NCTC 11047. More on the design: key: − = no fluorescence detected; e = trace of fluorescence; +/− = weak fluorescence; + = medium fluorescence; ++ = strong fluorescence; NG = No Growth. The conditions noted are these: Enterococcus faecium NCTC 11047 (Table 2); substrate 100 mg/l, 24 hours at 37° C., UV 360-365 nm. The protocol: as §1, §2
Assay [8] has as its system Candida glabrata NCPF3943. More on the design: key: − = no fluorescence detected; e = trace of fluorescence; +/− = weak fluorescence; + = medium fluorescence; ++ = strong fluorescence; NG = No Growth. The settings on record: substrate 100 mg/l, 24 hours at 37° C., UV 360-365 nm. How it is done:
as §1, §2

Assay [9] concerns Bacillus subtilis NCTC 9372. The arrangement: key: − = no fluorescence detected; e = trace of fluorescence; +/− = weak fluorescence; + = medium fluorescence; ++ = strong fluorescence; NG = No Growth. The settings on record: substrate 100 mg/l, 24 hours at 37° C., UV 360-365 nm. The protocol: as §1, §2
Assay [10] has as its system Providencia rettgeri NCTC 7475. The arrangement: key: − = no fluorescence detected; e = trace of fluorescence; +/− = weak fluorescence; + = medium fluorescence; ++ = strong fluorescence; NG = No Growth. The conditions noted are these: substrate 100 mg/l, 24 hours at 37° C., UV 360-365 nm. How it is done:
as §1, §2

Assay [11] relates to Staphylococcus epidermidis NCTC 11047. The arrangement: key: − = no fluorescence detected; e = trace of fluorescence; +/− = weak fluorescence; + = medium fluorescence; ++ = strong fluorescence; NG = No Growth. The conditions noted are these: substrate 100 mg/l, 24 hours at 37° C., UV 360-365 nm. The protocol: as §1, §2
Assay [12] concerns Escherichia coli NCTC 10418. The arrangement: key: − = no fluorescence detected; e = trace of fluorescence; +/− = weak fluorescence; + = medium fluorescence; ++ = strong fluorescence; NG = No Growth. The settings on record: substrate 100 mg/l, 24 hours at 37° C., UV 360-365 nm. The protocol: as §1, §2
Assay [13] relates to Staphylococcus aureus NCTC 11939. More on the design: key: − = no fluorescence detected; e = trace of fluorescence; +/− = weak fluorescence; + = medium fluorescence; ++ = strong fluorescence; NG = No Growth. The conditions noted are these: Staphylococcus aureus (MRSA) NCTC 11939; substrate 100 mg/l, 24 hours at 37° C., UV 360-365 nm. How it is done: as §1, §2
In assay [14] the test system is Enterococcus faecalis NCTC 775. The arrangement: key: − = no fluorescence detected; e = trace of fluorescence; +/− = weak fluorescence; + = medium fluorescence; ++ = strong fluorescence; NG = No Growth. The settings on record: substrate 100 mg/l, 24 hours at 37° C., UV 360-365 nm. The protocol:
as §1, §2

The test system of assay [15] is Yersinia enterocolitica NCTC 11176. More on the design: key: − = no fluorescence detected; e = trace of fluorescence; +/− = weak fluorescence; + = medium fluorescence; ++ = strong fluorescence; NG = No Growth. The settings on record: substrate 100 mg/l, 24 hours at 37° C., UV 360-365 nm. The protocol: as §1, §2
Assay [16] has as its system Candida albicans ATCC 90028. More on the design: key: − = no fluorescence detected; e = trace of fluorescence; +/− = weak fluorescence; + = medium fluorescence; ++ = strong fluorescence; NG = No Growth. The conditions noted are these: substrate 100 mg/l, 24 hours at 37° C., UV 360-365 nm. The protocol: as §1, §2
Assay [17] deals with Enterobacter cloacae NCTC 11936. The arrangement: key: − = no fluorescence detected; e = trace of fluorescence; +/− = weak fluorescence; + = medium fluorescence; ++ = strong fluorescence; NG = No Growth. The conditions noted are these: substrate 100 mg/l, 24 hours at 37° C., UV 360-365 nm. The protocol:
as §1, §2

Assay [18] deals with Streptococcus pyogenes NCTC 8306. The arrangement: key: − = no fluorescence detected; e = trace of fluorescence; +/− = weak fluorescence; + = medium fluorescence; ++ = strong fluorescence; NG = No Growth. The settings on record: substrate 100 mg/l, 24 hours at 37° C., UV 360-365 nm. How it is done: as §1, §2
Assay [19] concerns Staphylococcus aureus strains. The conditions noted are these: the two Staphylococcus aureus strains. The protocol:
as §1, §2

SMILES strings stand for the structures.

Take `NCC(=O)Nc1ccccc1-c1nc2ccccc2o1` [Substrate 3]: the fluorescence intensity entry was “+/−” in assay [1]; “+” in [2]; “+/−” in assay [3]; “−” in assay [4]; “+” in assay [5]; “++” in [6]. The fluorescence intensity entry is recorded as “NG” in [7]; “NG” in assay [8]; “+/−” in [9]; “++” in assay [10]; “NG” in assay [11]; “++” in assay [12]. Further, the fluorescence intensity result was “+” in assay [13]; “−” in assay [14]; “+/−” in [15]; “NG” in assay [16]; “++” in [17]; “NG” in assay [18]. For the same molecule, in assay [2], the “fluorescence produced” value is “medium blue fluorescence”.
Turning to `C[C@H](N)C(=O)Nc1ccc(Cl)cc1-c1nc2ccccc2s1` [Substrate 19], the fluorescence intensity entry in assay [1] is “−”; in assay [2], “−”; in [3], “−”; in assay [4], “+/−”; in [5] it was “−”; in assay [6] it was “−”. Moreover, the fluorescence intensity result in assay [7] was “−”; in assay [8], “NG”; in assay [9], “−”; in [10], “+”; in assay [11], “NG”; in assay [12] it was “+”. Besides, the fluorescence intensity entry in assay [13] was “−”; in [14] it was “−”; in assay [16], “NG”; in assay [17] it was “+”; in assay [18] it was “NG”. Also, in assay [1], the “fluorescence produced” value is given as “negative”.
Regarding `NCCC(=O)Nc1ccccc1-c1nc2ccccc2s1` [Substrate 18], the fluorescence intensity entry in assay [1] is recorded as “++”; in assay [2], “NG”; in [3], “NG”; in assay [4], “NG”; in assay [5] it was “NG”; in assay [6], “++”. Moreover, the fluorescence intensity entry is “NG” in assay [7]; “NG” in [8]; “NG” in [9]; “NG” in assay [10]; “NG” in assay [11]; “++” in [12]. In addition, the fluorescence intensity result in assay [13], in assay [14], in assay [15], in [16], in [17] and in [18] was “NG” each time.
Take `C[C@H](N)C(=O)Nc1ccccc1-c1nc2cc(Cl)ccc2o1` [Substrate 4]: the fluorescence intensity entry in assay [1] is given as “+/−”; in assay [2] it was “−”; in [3], “−”; in [4], “NG”; in assay [5] it was “−”; in [6], “++”. Further, the fluorescence intensity entry in [7] is recorded as “−”; in assay [8], “−”; in [9], “NG”; in assay [10], “+”; in assay [11], “−”; in [12], “NG^2”. The fluorescence intensity entry is on record as “−” in assay [13]; “+/−” in assay [14]; “+” in [15]; “−” in assay [16]; “+” in assay [17]; “−” in assay [18]. For the same molecule, the “fluorescence produced” value in assay [1] is “weak violet fluorescence”; in assay [19], “no fluorescence was detected”.
On to `COc1cc(NC(=O)CCN)c(-c2nc3ccccc3o2)cc1OC` [Substrate 11], for which the fluorescence intensity result in assay [1] is “+/−”; in assay [2] it was “+”; in assay [3] it was “+/−”; in [4], “+”; in assay [5], “+”; in [6], “+”. The fluorescence intensity entry is listed as “+/−” in assay [7]; “−” in [8]; “−” in assay [9]; “+” in assay [10]; “−” in [11]; “+” in [12]. The fluorescence intensity entry was “−” in assay [13]; “+/−” in assay [14]; “+/−” in assay [15]; “−” in [16]; “+” in [17]; “−” in assay [18].
`NCCC(=O)Nc1ccccc1-c1nc2ccccc2o1` [Substrate 2]: the fluorescence intensity entry in assay [1] is given as “+”; in [2] it was “+”; in assay [3] it was “ε”; in assay [4] it was “−”; in [5], “−”; in assay [6] it was “+”. Besides, the fluorescence intensity result in assay [7] is reported as “+/−”; in assay [8], “−”; in assay [9], “NG”; in [10], “+/−”; in assay [11] it was “−”; in [12] it was “+”. The fluorescence intensity entry is “−” in assay [13]; “+/−” in [14]; “+/−” in assay [15]; “−” in assay [16]; “+” in [17]; “NG” in [18]. Also, the “fluorescence produced” value in assay [2] is “green fluorescence”.

The values above are taken from patent publication US8216800B2, “Substrates for detecting peptidase activity and methods using the substrates” (Biomerieux, priority 2007, dated 2012).
